Experimental data published in US20200069775A1, “BRAIN OSTEOCALCIN RECEPTOR AND COGNITIVE DISORDERS” (The Trustees of Columbia University in the City of New York, priority 2017, published 2020).

How the values were obtained:
[1] = test system: 3 month-old WT mice; test: Alendronate treatment with or without osteocalcin, MWMT and NOR; assay type: in vivo, mouse; details: peripheral delivery of osteocalcin, 60 ng/hr by osmotic pump
Method: For plasma injection experiments, 100 μl of plasma were injected 8 times during 24 days, via tail vein. Each group described is represented individually in each panel. For osteocalcin delivery in WT mice, pumps (Alzet micro-osmotic pump, Model 1002) delivering osteocalcin (30 ng/hr for 12 month-old and 90 ng/hr for 16 month-old mice), or vehicle, were surgically installed subcutaneously in the back of mice. […] Control mice receiving vehicle or mice receiving alendronate were implanted with osmotic pumps delivering vehicle only.
Morris water maze test: Animals are transported to the testing room in their home cages, and left undisturbed for at least 30 minutes prior to the first trial. The maze is comprised of a large swimming pool (150cm diameter) filled with water (23° C.) made opaque with non-toxic white paint. The pool is located in a brightly lit room filled with visual cues, including geometric figures on the walls of the maze demarking the four fixed starting positions of the trials, at (12:00, 3:00, 6:00 and 9:00). A 15 cm round platform is hidden 1 cm beneath the surface of the water at a fixed position. Each daily trial block consisted of four swimming trials, with each mouse starting from the same randomly chosen starting position. The starting position is varied between days. On day 1, mice that fail to find the platform within 2 min are guided to the platform. They must remain on the platform for 15 s before they are returned to their home cage. Mice are not guided to the platform after day 1, and the time it takes them to reach the platform over repeated trials ([…] for the next 10 days) is recorded as a measure of spatial learning.
Novel object recognition test (NOR): The NOR paradigm assesses the rodent's ability to recognize a novel object in the environment. The NOR task will be conducted, as previously described7, in an opaque plastic box using 2 different objects: (1) a clear plastic funnel (diameter 8.5 cm, maximal height 8.5 cm) and (2) a black plastic box (9.5 cm^3). These objects elicit equal levels of exploration as determined in pilot experiments (Denny, C. A., et al., 2012, Hippocampus 22:1188-1201; Oury, F., et al., 2013, Cell 155:228-241). The NOR paradigm consists of 3 exposures over the course of 3 days. On day 1, the habituation phase, mice are given 5 minutes to explore the empty arena, without any objects. On day 2, the familiarization phase, mice are given 10 minutes to explore 2 identical objects, placed at opposite ends of the box. On day 3, the test phase, mice are given 15 minutes to explore 2 objects, one novel object and a copy of the object from the familiarization phase. The object that serves as the novel object (either the funnel or the box) as well as the left/right starting position of the objects are counterbalanced within each group. Mice are placed in the center of the arena at the start of each exposure. […] Preference for the novel object is assessed based on the fraction of time that a mouse spends exploring the novel object compared to the familiar object. Exploration is scored from video recordings of each exposure and recorded using the Stopwatch program. […]
Streptavidin were added for 30 minutes at room temperature followed by PBS washes. […] For hormonal measurement; circulating levels of the carboxylated, undercarboxylated or uncarboxylated forms of osteocalcin were measured by ELISA. CTX content in serum (ng/ml) were measured with specific ELISAs (RatLaps™ (CTX-I) EIA (Immunodiagnosticsystems).

[2] = test system: cAMP production in hippocampal neurons; test: cAMP accumulation in primary hippocampal neurons; assay type: cell-based, mouse; details: cultured hippocampal neurons
Method: Hippocampal neurons were isolated from mouse embryos (embryonic day 16.5). After dissection, hippocampi were digested in Tryspin 0.05% and EDTA 0.02% for 15 minutes at 37° C. After 3 wash in DMEM (high glucose and sodium pyruvate) supplemented with 10% of fetal bovine serum, 100 U/mL Penicillin-Streptomycin and 1× GlutaMAX, cells were dissociated by pipetting up and down and then plated. After the culture was established, medium was changed 2 times per week with Neurobasal medium supplemented with B-27 supplement and 1× GlutaMAX. Experiments were performed on cells after 15 days of culture (DIV 15).
For Western blotting, frozen hippocampi from adult mice were lysed and homogenized in 250 µl tissue lysis buffer (25 mM Tris HCl 7.5; 100 mM NaF; 10 mM Na4P2O7; 10 mmM EDTA; 1% NP 40). Proteins were transferred to nitrocellulose membranes, and blocked with TBST-5% BSA for 1 hour. […] Western blot bands were quantified using ImageJ software. cAMP accumulation was measured in primary hippocampal neurons by using cAMP Parameter Assay Kit (R&D systems) and performed in primary hippocampal neurons (DIV15) following manufacturer instructions. For IP1 accumulation was determined in primary hippocampal neurons (DIV15) by using IP-One ELISA assay kit (Cisbio) following manufacturer instructions. […]

osteocalcin: Recombinant osteocalcin bacterially produced, cleaved from the GST subunit; completely undercarboxylated at all three sites; full-length mouse osteocalcin (YLGASVPSPDPLEPTREQCELNPACDELSDQYGLKTAYKRIYGITI)
behavioral abnormalities (MWMT, NOR) of alendronate-treated mice [1]: corrected | cAMP production [2]: did not affect cAMP production
